Laboratory results as given in patent publication US20060172418A1, “Hypercoiling polymers and their use in cellular delivery” (priority 2002, published 2006).
Entries after “also recorded” stand apart in the source; their conditions may differ. Read-outs that look alike come from different tables or passages of the source.

Experiments:
[1] = test system: HepG2 cells; assay: Uptake and internalisation of PD30 (LSCM); format: cell-based, Human; conditions: pH 7.4, 37° C., 30 minutes; PD30 1 mg/mL, bis-amino Cy3 0.01 mg/mL
Description: (§1) CHO or HepG2 cells (80,000 cells/mL) were seeded into Willco dishes and incubated overnight (24 hours) at 37° C. in a humidity controlled incubator in an air atmosphere supplemented with 5% CO2.
(§2) The cells were then washed three times with 2 mL D-PBS (Sigma, Poole, Dorset, UK) to remove excess serum. 2 mL of PD30 at a concentration of 1 mg/mL in D-PBS (pH 7.4) was added, and the cells incubated for 10 minutes at 37° C. in a humidity controlled incubator in an air atmosphere supplemented with 5% CO2.
(§3) Controls were prepared similarly, by the addition of 2 mL of bis-amino Cy3 at a concentration of 0.01 mg/mL in D-PBS (pH 7.4), or 2 mL of bis-sulphonic acid Cy3 at a concentration of 0.01 mg/mL in D-PBS (pH 7.4), followed by incubation for 10 minutes at 37° C. in a humidity controlled incubator in an air atmosphere supplemented with 5% CO2.
(§4) Laser Scanning Confocal Microscopy (LSCM) images were then obtained at 10 minute intervals, using an Olympus FV300 LSCM (Department of Chemical Engineering, University of Cambridge, Cambridge, Cambridgeshire, UK). The cells remained on the microscope for the duration of the imaging experiments.

[2] = test system: CHO cells; assay: Uptake and internalisation of PD30 (LSCM); format: cell-based, Chinese hamster; conditions: pH 7.4, 37° C., 30 minutes; PD30 1 mg/mL, free dyes 0.01 mg/mL
Description: as §1, §2, §3, §4

[3] = Spectrophotometric titration with HCl; format: physicochemical; conditions: read-out: pKa of the bis-amino groups
Description: Aqueous solutions of polymers were titrated by with 1.0 N HCl delivered to an Aminco-SDP-125 spectrofluorimeter, equipped with a flow through cell, from a titration vessel, via a peristaltic pump.
Spectrophotometric titrations were carried out for a mixture of poly(L-lysine iso-phthalamide) at a concentration of 0.5 g/l and free bis-amino Cy3 at a fluorophore concentration of 0.26 mM (0.1 g/l), which yields the maximum emission intensity for this polymer/fluorophore combination.

[4] = test system: CHO cells; assay: Interaction of PD20 with CHO cells at pH 7.4, 6.0 or 5.0 (confocal time course); format: cell-based, Chinese hamster
Description: CHO cells (80,000/mL) were seeded into WilCo dishes and incubated overnight (24 hours) at 37° C. in a humidity controlled incubator in an air atmosphere supplemented with 5% CO2.
The CHO cells were then washed three times with 2 mL D-PBS (Sigma, Poole, Dorset, UK) to remove excess serum and incubated with 2 mL PD20 (1 mg/mL) in serum-free medium (F12 Nutrient Ham Mixture, Sigma, Poole, Dorset, UK) titrated to pH 7.4, 6.0, or 5.0 with 0.1 M HCl.
The CHO cells were then incubated for 10 minutes and washed three times with 2 mL D PBS (pH 7.4, 6.0, or 5.0). 2 mL of fresh D-PBS at the required pH (pH 7.4, 6.0, or 5.0) was added to each dish and the CHO cells were then imaged on a Zeiss LSM410 confocal microscope (Amersham Biosciences, Cardiff, UK) for 1 hour at 10 minute intervals (to reduce photobleaching and cell exposure to the laser). The cells were maintained at 37° C. on an integral heater stage.
The confocal microscope images were quantified using Metamorph™ software to give the fluorescence intensity.

[5] = test system: HepG2 cells; assay: Co-localisation of PD20 with FITC-Alexa Fluor 488; format: cell-based, Human; conditions: 1 mg/mL, 15 minutes, pH 7.4
Description: HepG2 cells (80,000/mL) were seeded into WilCo dishes, and incubated overnight (24 hours) at 37° C. in a humidity controlled incubator in an air atmosphere supplemented with 5% CO2.
The HepG2 cells were then incubated for a period of 15 minutes with a mixture of PD20 at a concentration of 1 mg/mL and the endosomal labelling fluorophore FITC-Alexa Fluor 488 (Cambridge Biosciences, Cambridge, UK) at a concentration of 50 μg/mL in serum free medium (Dulbecco's Modified Eagle Medium, DMEM) appropriate for HepG2 cells (total volume 2 mL) at pH 7.4.
The supernatant was then removed and the cells washed three times with 2 mL DMEM. 2 mL of fresh D-PBS was added to each dish and the CHO cells were then imaged on a Zeiss LSM410 confocal microscope (λex 535 nm, λem 570 nm for PD20, λex 495 nm, λem 518 nm for FITC Alexa Fluor 488) (Amersham Biosciences, Cardiff, UK).

[6] = test system: CHO cells; assay: Interaction of PD20 with CHO cells at pH 7.4 and pH 5.5 (fluorescence microscopy); format: cell-based, Chinese hamster; conditions: 30 minute incubation at 37° C.
Description: A 2 mL suspension of CHO cells (10^5 cells/mL) was seeded into WilCo dishes (Intracel, Royston, UK) and incubated overnight (24 hours) at 37° C. in a humidity controlled incubator in an air atmosphere supplemented with 5% CO2.
The CHO cells were then washed three times with 100 μl of D-PBS (Sigma, Poole, Dorset, UK) to remove excess serum. 2 mL of PD20 (1 mg/mL) in D-PBS (Sigma, Poole, Dorset, UK) at pH 7.4 or titrated to pH 5.5 with 0.1 M HCl was then added to the Willco dishes.
The dishes were incubated for 30 minutes, the PD20 removed (by aspiration) and the cells washed three times with 2 mL D-PBS (Sigma, Poole, Dorset, UK) adjusted to pH 7.4 or pH 5.5 with 1.0 M HCl.
The CHO cells were then re-suspended in 2 mL of D-PBS at pH 7.4 or titrated to pH 5.5 with 0.1 M HCl and fluorescent photomicrogram images obtained on a Laser Scanning Confocal Zeiss LSM410 microscope (λex 535 nm, λem 570 nm) with a ×20 magnification lens (Amersham Biosciences, Cardiff, UK).
Phase contrast images of the CHO cells were obtained on the same microscope in non-fluorescence mode.

[7] = test system: MCF7/MXR cells; assay: Polymer-conjugated doxorubicin uptake (flow cytometry); format: cell-based, human; conditions: 2 mM doxorubicin or equivalent; for uptake into cells: serum-free medium
Description: (§5) Control solutions, containing polymer (with no doxorubicin) and medium alone were also prepared. […] Samples (1 mL) of each test solution were placed in Eppindorf centrifuge tubes and placed in an incubator at 37° C. under a 5% CO2 atmosphere. 2×10^6 cells of each type were suspended in 300 μL of cell culture media (10% foetal calf serum, 2 mM L-Glutamine, 100 U/mL penicillin and 100 μg/mL streptomycin) and incubated at 37° C. under a 5% CO2 atmosphere. The study was initiated by adding 10 μL of cells to each test sample. After selected exposure times, the cells were pelleted by centrifuge and placed on ice. The cells were then re-suspended in phosphate buffer and analysed using a flow cytometer gated to count […] (approximately 10% of the total cell count). A histogram of fluorescence intensity vs. number of events, and the median value of fluorescence intensity, was recorded for each sample. Background fluorescence for cells alone, or for cells with DMSO, was subtracted from the corresponding test samples.

[8] = test system: MCF7 cells; assay: as above; format: cell-based, human; conditions: 2 mM doxorubicin or equivalent; for uptake into cells: serum-free medium
Description: as §5

[9] = at 25° C.; cited from earlier work
[10] = test system: MCF7/MXR cells; conditions: 5 days
Description: (§6) Subsequently, a standard MTT (3-(4,5-dimethylthiazol-2-yl)-2,5-diphenyl-2H-tetrazolium bromide) assay was performed in order to assess cell viability.
(§7) The total DMSO concentration was adjusted to 1% by volume, and the cells incubated at 37° C. under a 5% CO2 atmosphere for 5 days. […] Subsequently, a standard MTT assay was performed in order to assess cell viability.

[11] = test system: MCF7 cells; conditions: 5 days
Description: as §6, §7

## Poly(L-lysine-co-Cy3-iso-phthalamide) [PD30]
[1]
  nuclear staining: heavy staining in the nucleus; also recorded: extensive nuclear staining
  subcellular localisation after uptake: localised in the nucleus
[2]
  nuclear staining: heavily stained; also recorded: clearly associated with the nucleus
  subcellular localisation after uptake: localised in the nucleus

## CCN1/C(=C/C=C/C2=[N+](CC)c3ccc(CN)cc3C2(C)C)C(C)(C)c2cc(CN)ccc21 [bis-amino Cy3, reference compound]
[3]
  pKa: 9.5
[1]
  nuclear staining: No nuclear staining
  subcellular localisation after uptake: localised in the endosome
[2]
  subcellular localisation after uptake: localised in the endosome

## Poly(L-lysine-co-Cy3-iso-phthalamide) [PD20]
[4]; 1 mg/mL
  initial relative fluorescence intensity of cells at pH 6.0 and pH 5.0 versus pH 7.4: more than three times larger
[4]; pH 5.0, 1 mg/mL
  time at which fluorescence intensity peaked: 20 min
[4]; pH 6.0, 1 mg/mL
  time at which fluorescence intensity peaked: 30 min
[4]; pH 7.4, 1 mg/mL
  relative fluorescence intensity of the cells with time: gradual increase
[5]
  co-localisation with endosomal stain FITC-Alexa Fluor 488: uptake of the PD20 into the endosomal compartment
[6]; pH 5.5, 1 mg/mL
  adsorption onto the extracellular membrane of CHO cells: extensive adsorption
[6]; pH 7.4, 1 mg/mL
  adsorption onto the membrane of CHO cells: weakly adsorbed

## poly(lysine iso-phthalamide-co-lysine DOX iso-phthalamide) [polymer-conjugated doxorubicin]
[7]
  effect of 1% DMSO on uptake: little effect
  uptake into cells: taken up into cells
[8]
  effect of 1% DMSO on uptake: little effect
  uptake into cells: taken up into cells

## NCCCC[C@H](N)C(=O)O [lysine]
[9]
  pKa: about 2.18

## COc1cccc2c1C(=O)c1c(O)c3c(c(O)c1C2=O)C[C@@](O)(C(=O)CO)C[C@@H]3O[C@H]1C[C@H](N)[C@H](O)[C@H](C)O1 [doxorubicin, reference compound]
[7]
  effect of 1% DMSO on uptake: significantly enhances
  uptake into cells: taken up into cells
[8]
  effect of 1% DMSO on uptake: significantly enhances
  uptake into cells: taken up into cells
[10]; 1% by volume of DMSO
  cytotoxic effect: significant cytotoxic effects
[10]; without DMSO
  cytotoxic effect: significant cytotoxic effects
[11]; 1% by volume of DMSO
  cytotoxic effect: significant cytotoxic effects
[11]; without DMSO
  cytotoxic effect: significant cytotoxic effects
